Here are results for 32 compounds from patent US20240417406A1, “NITROGEN-CONTAINING TRICYCLIC COMPOUND AND PHARMACEUTICAL USE THEREOF” (JAPAN TOBACCO INC., priority 2021, published 2024).

The target in the test is human PDHK2 (hPDHK2) (Homo sapiens (Human), UniProt Q15119). The experiment in a line: Inhibitory action of PDHK2 activity (PDH/hPDHK2 complex, residual PDH activity by NADH absorbance at 340 nm). Type of test: biochemical. Particulars: FLAG-tagged recombinant hPDHK2 with porcine heart PDH complex; PDHK reaction 45 min at room temperature. As to the method:
In the case of human PDHK2 (hPDHK2, NCBI Reference Database Accession number NM_002611.4), modified hPDHK2 cDNA wherein FLAG-Tag sequence was added to the N terminal of hPDHK2 cDNA clone (pReceiver-M01/PDK2-GeneCopoeia) as the base was prepared by polymerase chain reaction (PCR) and ligated to the NdeI/EcoRI site of pET-17b vector (Merck KGaA, Catalog Number 69663-3). The recombinant construct was transformed into Escherichia coli DH5a. The recombinant clones were identified, and plasmid DNA was isolated and subjected to the DNA sequence analysis. One clone which had the expected nucleic acid sequence was selected for expression work.
For expression of hPDHK2 activity, Escherichia coli strain BL21(DE3) cells (Merck KGaA, Catalog Number 69450-4) were transformed with the pET17b vector containing modified hPDHK2 cDNA. The Escherichia coli were grown to an optical density 0.6 ([…]) at 30° C. Protein expression was induced by the addition of 500 μmol/L isopropyl-β-thiogalactopyranoside. The Escherichia coli were cultured at 20° C. for 17 to for 18 hr and harvested by centrifugation. The harvested Escherichia coli was resuspended in a suspension buffer (20 mmol/L HEPES-NaOH, 500 mmol/L sodium chloride, 1% ethylene glycol, 0.1% Pluronic (registered trademark) F-68 (pH 8.0), cOmplete, EDTA-free (Roche) (pH 8.0)), and disrupted by a microfluidizer M-110H (MIZUHO INDUSTRIAL CO., LTD.). The precipitate was removed by centrifugation and the supernatant was added to DDDDK-tagged Protein PURIFICATION GEL (MEDICAL & BIOLOGICAL LABORATORIES CO., LTD., Code No. 3329). DDDDK-tagged Protein PURIFICATION GEL was washed with a washing buffer (20 mmol/L HEPES-NaOH, 500 mmol/L sodium chloride, 1% ethylene glycol, 0.1% Pluronic F-68 (pH 8.0)) and the bound protein was eluted with elution buffer 1 (20 mmol/L HEPES-NaOH, 100 μg/mL peptide (amino acid sequence DYKDDDDK) (SEQ ID NO: 1), 500 mmol/L sodium chloride, 1% ethylene glycol, 0.1% Pluronic F-68 (pH 8.0)). The eluted fractions containing FLAG-Tagged protein were pooled, concentrated by an ultrafiltration method, added to a gel filtration column (HiLoad 26/60 Superdex 200 (GE Healthcare Life Sciences, Code No. 17-1070-01)), and eluted with elution buffer 2 (20 mmol/L HEPES-NaOH, 150 mmol/L sodium chloride, 0.5 mmol/L ethylenediaminetetraacetic acid (EDTA), 1% ethylene glycol, 0.1% Pluronic F-68 (pH 8.0)). The eluted fractions were pooled and preserved at −80° C.
PDH (porcine heart PDH complex, Sigma P7032) and 0.5 μg/mL hPDHK2 were mixed in an assay buffer (50 mmol/L 3-morpholinopropanesulfonic acid (pH 7.0), 20 mmol/L dipotassium hydrogen phosphate, 60 mmol/L potassium chloride, 2 mmol/L magnesium chloride, 0.4 mmol/L EDTA, 0.2% poloxamer, 2 mmol/L dithiothreitol) so that the final concentration of PDH was 0.025 U/mL, and the mixture was incubated at 4° C. overnight to obtain a PDH/hPDHK2 complex solution.
PDH was mixed with the assay buffer so that the final concentration was 0.025 U/mL, and the mixture was incubated at 4° C. overnight to prepare a PDH solution.
The test compounds were diluted with DMSO. […] DMSO (1.5 μL) was added to control wells instead of test compound. In addition, DMSO (1.5 μL) was added to blank wells instead of the test compound, and PDH solution was added instead of the PDH/hPDHK2 complex solution. To measure an inhibitory action of the test compound on the PDHK activity inherent in the PDH solution, a test compound was added and the PDH solution instead of the PDH/hPDHK2 complex solution was added to a blank+test compound well.
Then, 10 μL of substrates (5 mmol/L sodium pyruvate, 5 mmol/L Coenzyme A, 12 mmol/L NAD, 5 mmol/L thiamine pyrophosphate, diluted with assay buffer) were added. The mixture was incubated at room temperature for 90 min, and the residual PDH activity was measured.
The absorbance of each well at 340 nm was measured using a microplate reader to detect NADH produced by the PDH reaction. […]

For `C[C@@H]1Cc2nn(CC#N)cc2-c2onc([C@](C)(O)C(F)(F)F)c21` [Example 49], the IC50 was 19.5 nM. Regarding `C[C@H]1Cn2nc(OC3CCOCC3)cc2-c2onc([C@@](C)(O)C(F)(F)F)c21` [Example 59, (R)-1,1,1-trifluoro-2-((R)-4-methyl-8-((tetrahydro-2H-pyran-4-yl)oxy)-4,5-dihydroisoxazolo[5,4-c]pyrazolo[1,5-a]pyridin-3-yl)propan-2-ol], the IC50 turned out to be 7.1 nM. For the compound `C[C@H]1Cn2nccc2-c2onc([C@@](C)(O)C(F)(F)F)c21` [Example 60, (R)-1,1,1-trifluoro-2-((R)-4-methyl-4,5-dihydroisoxazolo[5,4-c]pyrazolo[1,5-a]pyridin-3-yl)propan-2-ol], the IC50 came to 6.7 nM. To `C[C@H]1Cn2nc(C3CCOCC3)cc2-c2onc([C@@](C)(O)C(F)(F)F)c21` [Example 61, (R)-1,1,1-trifluoro-2-((R)-4-methyl-8-(tetrahydro-2H-pyran-4-yl)-4,5-dihydroisoxazolo[5,4-c]pyrazolo[1,5-a]pyridin-3-yl)propan-2-ol] belongs 9.8 nM. Consider `C[C@H]1Cn2nc(OCCC(C)(C)O)cc2-c2onc([C@@](C)(O)C(F)(F)F)c21` [Example 62, 2-methyl-4-(((R)-4-methyl-3-((R)-1,1,1-trifluoro-2-hydroxypropan-2-yl)-4,5-dihydroisoxazolo[5,4-c]pyrazolo[1,5-a]pyridin-8-yl)oxy)butan-2-ol], for which the IC50 was determined as 8 nM. In the case of `C[C@H]1Cn2nc(O[C@H]3C[C@](C)(C#N)C3)cc2-c2onc([C@@](C)(O)C(F)(F)F)c21` [Example 63, (1R,3r)-1-methyl-3-(((R)-4-methyl-3-((R)-1,1,1-trifluoro-2-hydroxypropan-2-yl)-4,5-dihydroisoxazolo[5,4-c]pyrazolo[1,5-a]pyridin-8-yl)oxy)cyclobutane-1-carbonitrile], the IC50 is 9.1 nM.

For the compound `C[C@H]1Cn2nc(OCF)cc2-c2onc([C@@](C)(O)C(F)(F)F)c21` [Example 64, (R)-1,1,1-trifluoro-2-((R)-8-(fluoromethoxy)-4-methyl-4,5-dihydroisoxazolo[5,4-c]pyrazolo[1,5-a]pyridin-3-yl)propan-2-ol], the IC50 is 7.5 nM.

As to `C[C@H]1Cn2nc(O[C@H]3CC[C@](C)(O)CC3)cc2-c2onc([C@@](C)(O)C(F)(F)F)c21` [Example 65, (1R,4r)-1-methyl-4-(((R)-4-methyl-3-((R)-1,1,1-trifluoro-2-hydroxypropan-2-yl)-4,5-dihydroisoxazolo[5,4-c]pyrazolo[1,5-a]pyridin-8-yl)oxy)cyclohexan-1-ol], the IC50 was determined as 6.6 nM. To `C[C@H]1Cn2nc(OCCF)cc2-c2cnc([C@@](C)(O)C(F)(F)F)n21` [Example 66] belongs 13.7 nM; to `COc1cc2n(n1)C[C@H](C)n1c-2cnc1[C@@](C)(O)C(F)(F)F` [Example 67], 11.5 nM; to `COCCOc1cc2n(n1)C[C@H](C)n1c-2cnc1[C@@](C)(O)C(F)(F)F` [Example 68], 15.2 nM. The result for `C[C@H]1Cn2nc(C34CCC(CO)(CC3)CC4)cc2-c2cnc([C@@](C)(O)C(F)(F)F)n21` [Example 69] reads 18 nM. For `C[C@H]1Cn2nc(C34CC(CO)(C3)C4)cc2-c2cnc([C@@](C)(O)C(F)(F)F)n21` [Example 70], the IC50 is 21.2 nM. For `C[C@H]1Cn2nc(C34CCC(C#N)(CC3)CC4)cc2-c2cnc([C@@](C)(O)C(F)(F)F)n21` [Example 71, 4-((S)-5-methyl-3-((R)-1,1,1-trifluoro-2-hydroxypropan-2-yl)-5,6-dihydroimidazo[1,5-a]pyrazolo[5,1-c]pyrazin-9-yl)bicyclo[2.2.2]octane-1-carbonitrile], the IC50 was found to be 6.6 nM. The result for `C[C@H]1Cn2nc(C34CC(C#N)(C3)C4)cc2-c2cnc([C@@](C)(O)C(F)(F)F)n21` [Example 72] reads 12.3 nM; that for `C[C@H]1Cn2nc(N3CCOCC3)cc2-c2cnc([C@@](C)(O)C(F)(F)F)n21` [Example 74], 18.4 nM; that for `C[C@H]1Cn2nc(C34CCC(C(C)(C)O)(CC3)CC4)cc2-c2cnc([C@@](C)(O)C(F)(F)F)n21` [Example 75], 10 nM. In the case of `C[C@H]1Cn2nc(C34CC(C(C)(C)O)(C3)C4)cc2-c2cnc([C@@](C)(O)C(F)(F)F)n21` [Example 76], the IC50 was determined as 14.5 nM.

On to `C[C@H]1Cn2nc(N3CCC4(CC3)COC4)cc2-c2cnc([C@@](C)(O)C(F)(F)F)n21` [Example 77], for which the IC50 was determined as 14.4 nM. On to `C[C@H]1Cn2nc(N3CC4C(C3)C4(F)F)cc2-c2cnc([C@@](C)(O)C(F)(F)F)n21` (some centres unmarked) [Example 78], for which the IC50 was found to be 15.1 nM. To `C[C@H]1Cn2nc(N3CC4CC(C3)C4(F)F)cc2-c2cnc([C@@](C)(O)C(F)(F)F)n21` [Example 79] belongs 35.2 nM; to `C[C@H]1Cn2nc(N3C[C@H]4COC[C@H]4C3)cc2-c2cnc([C@@](C)(O)C(F)(F)F)n21` [Example 80], 43.4 nM; to `C[C@H]1Cn2nc(N3C[C@@H]4C[C@H]3CO4)cc2-c2cnc([C@@](C)(O)C(F)(F)F)n21` [Example 81], 29.8 nM. To `C[C@H]1Cn2nc(N3C[C@H]4C[C@@H]3CO4)cc2-c2cnc([C@@](C)(O)C(F)(F)F)n21` [Example 82] belongs 34 nM; to `C[C@H]1Cn2nc(N3CC4CC3C4)cc2-c2cnc([C@@](C)(O)C(F)(F)F)n21` [Example 83], 18.6 nM. With `C[C@H]1Cn2nc(N3CC4(C3)CC(F)(F)C4)cc2-c2cnc([C@@](C)(O)C(F)(F)F)n21` [Example 84, (R)-2-((S)-9-(6,6-difluoro-2-azaspiro[3.3]heptan-2-yl)-5-methyl-5,6-dihydroimidazo[1,5-a]pyrazolo[5,1-c]pyrazin-3-yl)-1,1,1-trifluoropropan-2-ol], the half-maximal inhibitory concentration (IC50) was found to be 36.5 nM. Consider `C[C@H]1Cn2nc(C34CCC(CO)(CC3)OC4)cc2-c2cnc([C@@](C)(O)C(F)(F)F)n21` [Example 85], for which the IC50 is 16.6 nM. Take `C[C@H]1Cn2nc(C34CCC(C#N)(CC3)C4)cc2-c2cnc([C@@](C)(O)C(F)(F)F)n21` [Example 86, 4-((S)-5-methyl-3-((R)-1,1,1-trifluoro-2-hydroxypropan-2-yl)-5,6-dihydroimidazo[1,5-a]pyrazolo[5,1-c]pyrazin-9-yl)bicyclo[2.2.1]heptane-1-carbonitrile]: the IC50 worked out at 14.1 nM. As to `C[C@H]1Cn2nc(C34CCC(CO)(CC3)C4)cc2-c2cnc([C@@](C)(O)C(F)(F)F)n21` [Example 87], the IC50 stood at 11 nM. Consider `C[C@H]1Cn2nc(C34CCC(C#N)(CC3)OC4)cc2-c2cnc([C@@](C)(O)C(F)(F)F)n21` [Example 88, 4-((S)-5-methyl-3-((R)-1,1,1-trifluoro-2-hydroxypropan-2-yl)-5,6-dihydroimidazo[1,5-a]pyrazolo[5,1-c]pyrazin-9-yl)-2-oxabicyclo[2.2.2]octane-1-carbonitrile], for which the IC50 came out at 23.8 nM.

Turning to `C[C@H]1Cn2nc(OCC34CCC(C#N)(CC3)CC4)cc2-c2cnc([C@@](C)(O)C(F)(F)F)n21` [Example 89], the IC50 was found to be 37.7 nM. Take `C[C@H]1Cn2nc(OCC34CCC(C#N)(CC3)C4)cc2-c2cnc([C@@](C)(O)C(F)(F)F)n21` [Example 90]: the IC50 worked out at 30.5 nM.

The term IC50 denotes the point on the concentration scale where inhibition reaches its midpoint.
